Assay results: the supplement of paper PMC8671470

Experiments:
Details in all cases: 72 h
BV-173 [1] = test system: BV-173
Summary of the method: (§1)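 For the IC50, dose–response curves were fitted with a log-logistic model. The data came from fifteen myeloid leukaemia cell lines grown in RPMI 1640 at densities in the linear growth range and incubated in 384-well plates for 72 h at 37 °C under 5% CO2. Doses were five tenfold steps from 1 to 10,000 nM in duplicate, and luminescent ATP viability was normalised to vehicle and to a positive control at 10 µM before four-parameter fitting.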

HEL [2] = test system: HEL
Summary of the method: as §1

HL-60 [3] = test system: HL-60
Summary of the method: as §1

K-562 [4] = test system: K-562
Summary of the method: as §1

KCL-22 [5] = test system: KCL-22
Summary of the method: as §1

KG-1 [6] = test system: KG-1
Summary of the method: as §1

KU-812 [7] = test system: KU-812
Summary of the method: as §1

LAMA-84 [8] = test system: LAMA-84
Summary of the method: as §1

ML-2 [9] = test system: ML-2
Summary of the method: as §1

MOLM-13 [10] = test system: MOLM-13
Summary of the method: as §1

MV4-11 [11] = test system: MV4-11
Summary of the method: as §1

Mono-Mac-6 [12] = test system: Mono-Mac-6
Summary of the method: as §1

NOMO-1 [13] = test system: NOMO-1
Summary of the method: as §1

SHI-1 [14] = test system: SHI-1
Summary of the method: as §1

THP-1 [15] = test system: THP-1
Summary of the method: as §1

BV-173 [16] = test: cell viability (% survival relative to DMSO control, bortezomib = 0%); higher = less cytotoxic
Summary of the method: (§2)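 In 384-well plates pre-printed with compounds at 1, 10, 100, 1000 or 10000 nM, duplicate wells received cells from 10 AML and 5 CML lines at densities within the linear growth range. The plates stayed at 37 °C with 5% CO2 for 72 h before CellTiter-Glo luminescence was recorded. Each entry is averaged percent survival. Scaling placed vehicle at 100% and a 10 µM positive control at 0%.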

HEL [17] = test: as above
Summary of the method: as §2

HL-60 [18] = test: as above
Summary of the method: as §2

K-562 [19] = test: as above
Summary of the method: as §2

KCL-22 [20] = test: as above
Summary of the method: as §2

KG-1 [21] = test: as above
Summary of the method: as §2

KU-812 [22] = test: as above
Summary of the method: as §2

LAMA-84 [23] = test: as above
Summary of the method: as §2

ML-2 [24] = test: as above
Summary of the method: as §2

MOLM-13 [25] = test: as above
Summary of the method: as §2

MV4-11 [26] = test: as above
Summary of the method: as §2

Mono-Mac-6 [27] = test: as above
Summary of the method: as §2

NOMO-1 [28] = test: as above
Summary of the method: as §2

SHI-1 [29] = test: as above
Summary of the method: as §2

THP-1 [30] = test: as above
Summary of the method: as §2

Cc1nc(-c2ccccc2)sc1C(=O)Nc1ccc(S(N)(=O)=O)cc1
Details	IC50 (cell viability) [µM]
BV-173 [1]	> 10
HEL [2]	> 10
HL-60 [3]	> 10
K-562 [4]	> 10
KCL-22 [5]	> 10
KG-1 [6]	> 10
KU-812 [7]	> 10
LAMA-84 [8]	> 10
ML-2 [9]	> 10
MOLM-13 [10]	> 10
MV4-11 [11]	> 10
Mono-Mac-6 [12]	> 10
NOMO-1 [13]	> 10
SHI-1 [14]	> 10
THP-1 [15]	> 10

cell viability [%]
Details	1 nM	10 nM	100 nM	1000 nM	10000 nM
BV-173 [16]	115	103	85.1	97.8	109
HEL [17]	110	112	106	89.3	105
HL-60 [18]	109	85	117	103	97.2
K-562 [19]	103	109	105	114	109
KCL-22 [20]	98.7	99.1	105	79.8	102
KG-1 [21]	118	104	98.5	93.3	102
KU-812 [22]	108	102	96.4	91	104
LAMA-84 [23]	107	99.9	102	96.2	111
ML-2 [24]	111	104	99.8	107	100
MOLM-13 [25]	102	112	127	106	99.7
MV4-11 [26]	106	112	105	105	93.8
Mono-Mac-6 [27]	121	102	98.7	97.3	108
NOMO-1 [28]	113	98.2	96.6	101	99.6
SHI-1 [29]	109	106	104	103	111
THP-1 [30]	107	103	97	94.7	97.7

Cn1cc(-c2ccncc2)c(-c2ccc(OCc3ccc4ccccc4n3)cc2)n1
Details	IC50 (cell viability) [µM]
BV-173 [1]	> 10
HEL [2]	9.86
HL-60 [3]	> 10
K-562 [4]	> 10
KCL-22 [5]	> 10
KG-1 [6]	> 10
KU-812 [7]	8.42
LAMA-84 [8]	> 10
ML-2 [9]	> 10
MOLM-13 [10]	1.74
MV4-11 [11]	2.09
Mono-Mac-6 [12]	> 10
NOMO-1 [13]	> 10
SHI-1 [14]	> 10
THP-1 [15]	> 10

cell viability [%]
Details	1 nM	10 nM	100 nM	1000 nM	10000 nM
BV-173 [16]	93.5	97.7	93.6	90.2	57.3
HEL [17]	93	119	96.9	99.8	59.4
HL-60 [18]	117	92.7	103	136	64.2
K-562 [19]	99.5	109	106	98.5	57.9
KCL-22 [20]	116	96	96.4	102	73.7
KG-1 [21]	97.7	96.7	110	102	87.4
KU-812 [22]	95.4	103	93.3	92.4	43.1
LAMA-84 [23]	104	114	98.4	95.8	60
ML-2 [24]	101	94.6	98.3	103	69.3
MOLM-13 [25]	123	99.5	95.9	69.4	6.76
MV4-11 [26]	101	118	91.5	76.5	7.29
Mono-Mac-6 [27]	92.7	87.4	89.5	90.5	52.3
NOMO-1 [28]	103	98.8	97	101	93.9
SHI-1 [29]	99	104	107	104	93.7
THP-1 [30]	92.7	101	100	104	92

O=C(O)CC[N+](=O)[O-] [3-nitropropionic acid]
Details	IC50 (cell viability) [µM]
BV-173 [1]	> 10
HEL [2]	> 10
HL-60 [3]	4.69
K-562 [4]	3.64
KCL-22 [5]	> 10
KG-1 [6]	> 10
KU-812 [7]	> 10
LAMA-84 [8]	> 10
ML-2 [9]	> 10
MOLM-13 [10]	2.87
MV4-11 [11]	3.17
Mono-Mac-6 [12]	> 10
NOMO-1 [13]	> 10
SHI-1 [14]	2.94
THP-1 [15]	> 10

cell viability [%]
Details	1 nM	10 nM	100 nM	1000 nM	10000 nM
BV-173 [16]	93.7	93.5	106	114	93.7
HEL [17]	92.8	116	117	98.8	104
HL-60 [18]	52.3	157	104	108	14.7
K-562 [19]	112	120	89.7	95	10.5
KCL-22 [20]	73.9	101	98.3	123	81
KG-1 [21]	99	91.2	97.3	97.3	104
KU-812 [22]	95.5	103	99.8	99.2	88.1
LAMA-84 [23]	104	103	98.6	97.5	103
ML-2 [24]	104	107	107	102	87
MOLM-13 [25]	68.7	122	110	94	0.718
MV4-11 [26]	105	115	87.2	99.5	0.752
Mono-Mac-6 [27]	102	93.6	101	97.4	104
NOMO-1 [28]	94.8	93.2	101	104	93.4
SHI-1 [29]	90.7	120	97.5	92.9	3.76
THP-1 [30]	88.2	96.7	99.1	86.5	92.2
